# Results reported in US9670197B2, “Small molecule modifiers of the Hec1-Nek2 interaction in G2/M” (The Regents of the University of California, priority 2013, dated 2017).
# How the values were obtained:
# [1] = system: Aurora A; assay: Aurora A expression in treated HeLa cells, western blot; type: cell-based; details: dose series
# Procedure: (§1) INH-induced Nek2 degradation; INH-inhibition of Hec1 phosphorylation by Nek2. […] To evaluate whether INH treatment affected cell cycle profile or Nek2 mRNA level, we performed FACS and real-time PCR analysis.
# (§2) Protein extraction and western blot analysis. The protein extractions and western blot analyses of Examples 4-6 were conducted as follows. Cell extracts were prepared and equal amounts of protein were separated by SDS-PAGE (10% w/v gel) followed by electrophoretic transfer to PVDF membranes (Millipore, Billerica, Mass.). After blocking with 5% w/v powdered non-fat milk, the membrane was incubated with different antibodies for overnight at 4° C. and treated for 1 hr with horseradish peroxidase-conjugated goat anti-mouse IgG and goat anti-rabbit IgG antibodies (GeneTex, Irvine, Calif.). ECL detection of the horseradish peroxidase reaction was performed according to the manufacturer's instructions (Millipore, Billerica, Mass.). Protein signal was measured on a LAS 4000 mini Imaging System (Fujifilm, Valhalla, N.Y.).
# [2] = system: PLK1; assay: PLK1 expression in treated HeLa cells, western blot; type: cell-based; details: dose series
# Procedure: as §1, §2
# [3] = system: pS165 Hec1; assay: Phosphorylated Hec1 (pS165 Hec1) level in treated HeLa cells; type: cell-based; details: 1 μM, 4 to 24 hours
# Procedure: as §2
# The following antibodies were used in the experiments described in Examples 4-6. Mouse anti-Hec1 clone 9G3, mouse anti-Nek2, mouse anti-myc, mouse anti-PLK1, mouse anti-p84, mouse anti-GAPDH, rabbit anti-Aurora A and rabbit anti-cyclin B1 antibodies (GeneTex, Irvine, Calif.), mouse anti-GFP (Roche, Indianapolis, Ind.), human anti-ACA (Antibodies Inc., Davis, Calif.), mouse anti-alpha-tubulin, rabbit anti-gamma tubulin (Sigma-Aldrich, St. Louis, Mo.), and secondary antibodies conjugated with Alexa dyes (Invitrogen, Grand Island, N.Y.). […]
# [4] = system: Nek2; assay: Nek2 protein level in treated HeLa cells, western blot; type: cell-based; details: dose series
# Procedure: as §1, §2
# [5] = system: MDA-MB-231; assay: Cancer cell growth inhibition, MDA-MB-231; type: cell-based; details: Homo sapiens, Table 2, Breast adenocarcinoma, read-out: cancer cell growth suppression
# Procedure: (§3) Cell lines and establishment of stable cell lines. Human breast cancer cell lines MDA-MB-231 and MDA-MB-468, osteosarcoma line U20S, cervical adenocarcinoma line HeLa, and normal skin fibroblast Hs27 were maintained in DMEM medium (Invitrogen, Grand Island, N.Y.) supplemented 10% fetal bovine serum (FBS) and 1% penicillin-streptomycin. The leukemia cell line K562 and glioblastoma cell line T98G were grown in RPMI 1640 supplemented 10% FBS and 1% penicillin-streptomycin. Normal mammary gland epithelial cell line MCF10A was cultured in DMEM/F12 (50:50) plus 5% horse serum, 0.1 μg/mL cholera toxin, 10 μg/mL insulin, 0.5 μg/mL hydrocortisone, and 20 ng/mL epidermal growth factor. To establish MDA-MB-468 cells that stably expressed each individual GFP-Hec1 deletion construct described above, cells were infected with retrovirus expressing GFP-Hec1 WT, GFP-Hec1 W395A and GFP-Hec1 WLK/AAA, and were selected with 2 μg/ml puromycin.
# [6] = system: MB468; assay: Cancer cell growth inhibition, MB468 (MDA-MB-468); type: cell-based; details: Homo sapiens, Table 2, Breast adenocarcinoma, read-out: cancer cell growth suppression
# [7] = system: HeLa cells; assay: Mitotic abnormalities in HeLa cells; type: cell-based, human; details: for chromosomal misalignment: 24 hrs of treatment, versus DMSO
# Excerpt: INH-triggered mitotic catastrophe. […] Error bars represent SE, n=>200 per sample in FIG. 3A. […] Error bars represent SE n=200 in FIG. 3B. Over time, the accumulation of chromosomal and spindle abnormalities led to cell death.
# [8] = target: T1, Nek2 (Homo sapiens, UniProt P51955); assay: Biotin-conjugated INH pull-down, Nek2; type: binding
# T1 construct: endogenous in cells; host or cells: HeLa
# T1 sequence (P51955 1-445): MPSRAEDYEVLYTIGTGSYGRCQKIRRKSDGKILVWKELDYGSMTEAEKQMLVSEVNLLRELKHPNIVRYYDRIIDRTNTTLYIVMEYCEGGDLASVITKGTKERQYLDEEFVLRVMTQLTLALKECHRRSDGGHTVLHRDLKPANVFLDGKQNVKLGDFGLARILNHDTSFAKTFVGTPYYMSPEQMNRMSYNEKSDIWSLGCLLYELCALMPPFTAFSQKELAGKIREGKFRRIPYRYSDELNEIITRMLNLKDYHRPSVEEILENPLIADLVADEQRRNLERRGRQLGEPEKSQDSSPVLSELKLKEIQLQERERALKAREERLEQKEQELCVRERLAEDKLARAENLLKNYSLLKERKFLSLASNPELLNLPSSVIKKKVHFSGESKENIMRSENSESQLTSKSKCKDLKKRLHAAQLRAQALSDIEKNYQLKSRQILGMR
# [9] = system: K562; assay: Cancer cell growth inhibition, K562 leukemia; type: cell-based; details: Homo sapiens, Table 2, Leukemia, read-out: cancer cell growth suppression
# Procedure: as §3
# [10] = system: MCF10A; assay: Growth inhibition, normal mammary epithelial MCF10A; type: cell-based; details: for IC50: Homo sapiens, MCF-10A, Table 2, Epithelial, MCF10A, read-out: cell growth suppression; for growth inhibitory effect on non-tumorgenic epithelial cells: data not shown
# Procedure: as §3
# [11] = system: HeLa; assay: Cancer cell growth inhibition, HeLa; type: cell-based; details: Homo sapiens; Table 2, Cervical, HeLa; read-out: cancer cell growth suppression
# Procedure: as §3
# [12] = system: T98G; assay: Cancer cell growth inhibition, T98G glioblastoma; type: cell-based; details: Homo sapiens, Table 2, Glioblastoma, read-out: cancer cell growth suppression
# Procedure: as §3
SMILES,expression of Aurora A [1],expression of PLK1 [2],phosphorylated Hec1 levels (pS165 Hec1) [3],"Nek2 degradation, dose dependence [4]",IC50 [5],IC50 [6],chromosomal misalignment [7],multipolar spindle configurations in the mitotic population ([7]; time course),interaction with Nek2 in pull-down [8],IC50 [9],IC50 [10],growth inhibitory effect on non-tumorgenic epithelial cells [10],IC50 [11],IC50 [12]
"Cc1cc(C)c(-c2csc(C(=O)c3ccncc3)n2)c(C)c1 [INH41, (4-mesitylthiazol-2-yl)(pyridin-4-yl)methanone]",not affected,not affected,notably reduced in a time-dependent fashion,degraded in a dose-dependent manner,400 nM,690 nM,increased chromosomal misalignment,aggravated in a time-dependent manner,Nek2 does not interact,620 nM,58000 nM,Neither INH41 nor INH154 had significant growth inhibitory effects,670 nM,860 nM
"Cc1cc(N2CCCCC2)cc(C)c1-c1csc(NC(=O)c2ccncc2)n1 [INH154, N-(4-(2,6-Dimethyl-4-(piperidin-1-yl)phenyl)thiazol-2-yl)isonicotinamide]",not affected,not affected,notably reduced in a time-dependent fashion,degraded in a dose-dependent manner,140 nM,–,increased chromosomal misalignment,–,Nek2 does not interact,110 nM,36000 nM,Neither INH41 nor INH154 had significant growth inhibitory effects,–,140 nM
